Results on twelve compounds are retold here after US20220184008A1, “MODULATORS OF INTRACELLULAR CHLORIDE CONCENTRATION” (FONDAZIONE ISTITUTO ITALIANO DI TECNOLOGIA, priority 2019, published 2022).

For one experiment, the target named is T1, NKCC1 (Homo sapiens, UniProt P55011).
T1 construct: expressed in transfected cells; host or cells: HEK293
T1 sequence (P55011 1-1212): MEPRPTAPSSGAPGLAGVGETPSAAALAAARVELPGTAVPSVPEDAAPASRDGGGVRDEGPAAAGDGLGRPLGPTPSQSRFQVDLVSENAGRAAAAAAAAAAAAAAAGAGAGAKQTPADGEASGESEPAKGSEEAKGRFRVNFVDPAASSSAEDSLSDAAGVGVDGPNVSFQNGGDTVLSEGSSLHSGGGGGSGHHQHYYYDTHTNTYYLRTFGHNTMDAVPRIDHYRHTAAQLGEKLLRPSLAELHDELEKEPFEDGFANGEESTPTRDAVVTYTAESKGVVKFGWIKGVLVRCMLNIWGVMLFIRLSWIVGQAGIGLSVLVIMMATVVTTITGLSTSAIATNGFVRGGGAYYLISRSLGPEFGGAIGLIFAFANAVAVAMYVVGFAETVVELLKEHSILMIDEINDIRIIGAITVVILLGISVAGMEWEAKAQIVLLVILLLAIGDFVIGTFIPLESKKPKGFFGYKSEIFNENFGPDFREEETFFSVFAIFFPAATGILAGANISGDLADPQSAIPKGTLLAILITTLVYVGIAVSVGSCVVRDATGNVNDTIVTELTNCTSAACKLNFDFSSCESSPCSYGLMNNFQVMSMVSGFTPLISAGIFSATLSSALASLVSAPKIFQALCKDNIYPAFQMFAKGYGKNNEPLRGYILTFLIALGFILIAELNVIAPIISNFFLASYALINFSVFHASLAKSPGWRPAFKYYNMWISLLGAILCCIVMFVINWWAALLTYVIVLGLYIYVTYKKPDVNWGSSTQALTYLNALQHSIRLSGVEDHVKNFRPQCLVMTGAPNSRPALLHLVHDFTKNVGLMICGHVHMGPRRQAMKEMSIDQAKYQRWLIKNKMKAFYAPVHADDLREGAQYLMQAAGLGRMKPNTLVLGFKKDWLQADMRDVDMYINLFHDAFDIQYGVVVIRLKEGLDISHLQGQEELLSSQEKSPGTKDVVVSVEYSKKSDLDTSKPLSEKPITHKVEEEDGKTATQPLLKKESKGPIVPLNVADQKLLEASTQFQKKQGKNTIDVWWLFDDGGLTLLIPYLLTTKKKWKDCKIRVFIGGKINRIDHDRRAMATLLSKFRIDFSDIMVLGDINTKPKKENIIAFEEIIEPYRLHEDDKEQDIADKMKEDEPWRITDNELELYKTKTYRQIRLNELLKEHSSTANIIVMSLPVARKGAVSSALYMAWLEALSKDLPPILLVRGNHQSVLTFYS
Briefly: Chloride kinetic assay (Cl-sensitive YFP) in NKCC1-transfected HEK293 cells. The class given is cell-based. The note with it: 10 μM; NKCC1-transfected HEK293; Table 1.
`CCCCCCNc1ccc(C(=O)O)cc1S(=O)(=O)NC` [Compound 3.7, 4-(hexylamino)-3-(methylsulfamoyl)benzoic acid]: the “NKCC1 Inhibition % 10 μM HEK Chloride YFP assay” value is given as “Inactive”.
Turning to `CNS(=O)(=O)c1cc(C(=O)O)ccc1NCCC(C)(C)C` [Compound 3.9, 4-(3,3-dimethylbutylamino)-3-(methylsulfamoyl)benzoic acid], the “NKCC1 Inhibition % 10 μM HEK Chloride YFP assay” value is reported as “Inactive”.
As to `CCCCCCCCNc1ccc(C(=O)O)cc1S(=O)(=O)N(C)C` [Compound 3.13, 3-(dimethylsulfamoyl)-4-(octylamino)benzoic acid], the “NKCC1 Inhibition % 10 μM HEK Chloride YFP assay” value is recorded as “Inactive”.
Turning to `CN(C)S(=O)(=O)c1cc(C(=O)O)ccc1NCCC(C)(C)C` [Compound 3.14, 4-(3,3-dimethylbutylamino)-3-(dimethylsulfamoyl)benzoic acid], the “NKCC1 Inhibition % 10 μM HEK Chloride YFP assay” value is “Inactive”.
As for Furosemide [reference compound], the “NKCC1 Inhibition % 10 μM HEK Chloride YFP assay” value is on record as “Inactive”.

Still in this experiment, the particulars now being: 10 μM; NKCC1-transfected HEK293; Table 1; read-out: NKCC1 Inhibition % 10 μM HEK Chloride YFP assay.
As for `CCCCCCCCNc1ccc(C(=O)O)cc1S(N)(=O)=O` [Compound 2.8, 4-(octylamino)-3-sulfamoyl-benzoic acid], the inhibition – broadly, the percentage by which the read-out fell short of the control – at 10 µM worked out at 5%.
For `CC(C)(C)CCNc1ccc(C(=O)O)cc1S(N)(=O)=O` [Compound 2.9, 4-(3,3-dimethylbutylamino)-3-sulfamoyl-benzoic acid], the inhibition at 10 µM came out at 1%.
With `CCCCNc1ccc(C(=O)O)cc1S(=O)(=O)NC` [Compound 3.6, 4-(butylamino)-3-(methylsulfamoyl)benzoic acid], the inhibition at 10 µM was 8%.
With `CCCCCCCCNc1ccc(C(=O)O)cc1S(=O)(=O)NC` [Compound 3.8, 3-(methylsulfamoyl)-4-(octylamino)benzoic acid], the inhibition at 10 µM was 16%.
Take `CCCCNc1ccc(C(=O)O)cc1S(=O)(=O)N(C)C` [Compound 3.11, 4-(butylamino)-3-(dimethylsulfamoyl)benzoic acid]: the inhibition at 10 µM was determined as 9%.
As to `CCCCCCNc1ccc(C(=O)O)cc1S(=O)(=O)N(C)C` [Compound 3.12, 3-(dimethylsulfamoyl)-4-(hexylamino)benzoic acid], the inhibition at 10 µM turned out to be 8%.
In the case of `CN(C)S(=O)(=O)c1cc(C(=O)O)ccc1NCCCCCCCC(F)(F)F` [Compound 3.17, 3-(dimethylsulfamoyl)-4-(8,8,8-trifluorooctylamino) benzoic acid], the inhibition at 10 µM amounted to 37%.

The same experiment, now with this note: 10 μM; NKCC1-transfected HEK293; Table 2.
With `CCCCCCNc1ccc(C(=O)O)cc1S(=O)(=O)NC` [Compound 3.7, 4-(hexylamino)-3-(methylsulfamoyl)benzoic acid], the “NKCC1 Inhibition % 10 μM HEK Chloride YFP assay” value is recorded as “Inactive”.
As to `CNS(=O)(=O)c1cc(C(=O)O)ccc1NCCC(C)(C)C` [Compound 3.9, 4-(3,3-dimethylbutylamino)-3-(methylsulfamoyl)benzoic acid], the “NKCC1 Inhibition % 10 μM HEK Chloride YFP assay” value is “Inactive”.
For the compound `CCCCCCCCNc1ccc(C(=O)O)cc1S(=O)(=O)N(C)C` [Compound 3.13, 3-(dimethylsulfamoyl)-4-(octylamino)benzoic acid], the “NKCC1 Inhibition % 10 μM HEK Chloride YFP assay” value is “Inactive”.
As for `CN(C)S(=O)(=O)c1cc(C(=O)O)ccc1NCCC(C)(C)C` [Compound 3.14, 4-(3,3-dimethylbutylamino)-3-(dimethylsulfamoyl)benzoic acid], the “NKCC1 Inhibition % 10 μM HEK Chloride YFP assay” value is reported as “Inactive”.
In the case of Furosemide [reference compound], the “NKCC1 Inhibition % 10 μM HEK Chloride YFP assay” value is “Inactive”.

Staying with this experiment, now noted: 100 μM.
`CN(C)S(=O)(=O)c1cc(C(=O)O)ccc1NCCCCCCCC(F)(F)F` [Compound 3.17, 3-(dimethylsulfamoyl)-4-(8,8,8-trifluorooctylamino) benzoic acid]: the “NKCC1 inhibition compared with bumetanide and furosemide” value was “better than bumetanide and furosemide”.

Staying with this experiment, now noted: pre-incubation at 10 μM and 100 μM.
For the compound Furosemide [reference compound], the “effect on decrease in fluorescence upon NaCl application in NKCC1-transfected cells” value was “effective at 100 μM only”.

The subject of a further experiment is NKCC1. Briefly: Calcium kinetic assay in primary cultures of immature hippocampal neurons. Type of experiment: cell-based. To be noted: 10 μM; immature neurons 3 DIV; Table 1.
For the compound `CCCCCCCCNc1ccc(C(=O)O)cc1S(N)(=O)=O` [Compound 2.8, 4-(octylamino)-3-sulfamoyl-benzoic acid], the “NKCC1 Inhibition % 10 μM Neurons Calcium kinetic assay” value is 3%.
On to `CC(C)(C)CCNc1ccc(C(=O)O)cc1S(N)(=O)=O` [Compound 2.9, 4-(3,3-dimethylbutylamino)-3-sulfamoyl-benzoic acid], for which the “NKCC1 Inhibition % 10 μM Neurons Calcium kinetic assay” value amounted to 25%.
For `CCCCNc1ccc(C(=O)O)cc1S(=O)(=O)NC` [Compound 3.6, 4-(butylamino)-3-(methylsulfamoyl)benzoic acid], the “NKCC1 Inhibition % 10 μM Neurons Calcium kinetic assay” value came out at 6%.
Regarding `CCCCCCNc1ccc(C(=O)O)cc1S(=O)(=O)NC` [Compound 3.7, 4-(hexylamino)-3-(methylsulfamoyl)benzoic acid], the “NKCC1 Inhibition % 10 μM Neurons Calcium kinetic assay” value turned out to be 7%.
In the case of `CCCCCCCCNc1ccc(C(=O)O)cc1S(=O)(=O)NC` [Compound 3.8, 3-(methylsulfamoyl)-4-(octylamino)benzoic acid], the “NKCC1 Inhibition % 10 μM Neurons Calcium kinetic assay” value is recorded as 20%.
Same read-out and setting: next, `CNS(=O)(=O)c1cc(C(=O)O)ccc1NCCC(C)(C)C` [Compound 3.9, 4-(3,3-dimethylbutylamino)-3-(methylsulfamoyl)benzoic acid]: 14%.
Regarding `CCCCNc1ccc(C(=O)O)cc1S(=O)(=O)N(C)C` [Compound 3.11, 4-(butylamino)-3-(dimethylsulfamoyl)benzoic acid], the “NKCC1 Inhibition % 10 μM Neurons Calcium kinetic assay” value was 8%.
Consider `CCCCCCNc1ccc(C(=O)O)cc1S(=O)(=O)N(C)C` [Compound 3.12, 3-(dimethylsulfamoyl)-4-(hexylamino)benzoic acid], for which the “NKCC1 Inhibition % 10 μM Neurons Calcium kinetic assay” value is on record as 13%.
As to `CCCCCCCCNc1ccc(C(=O)O)cc1S(=O)(=O)N(C)C` [Compound 3.13, 3-(dimethylsulfamoyl)-4-(octylamino)benzoic acid], the “NKCC1 Inhibition % 10 μM Neurons Calcium kinetic assay” value was found to be 45%.
On to `CN(C)S(=O)(=O)c1cc(C(=O)O)ccc1NCCC(C)(C)C` [Compound 3.14, 4-(3,3-dimethylbutylamino)-3-(dimethylsulfamoyl)benzoic acid], for which the “NKCC1 Inhibition % 10 μM Neurons Calcium kinetic assay” value came out at 11%.
`CN(C)S(=O)(=O)c1cc(C(=O)O)ccc1NCCCCCCCC(F)(F)F` [Compound 3.17, 3-(dimethylsulfamoyl)-4-(8,8,8-trifluorooctylamino) benzoic acid]: the “NKCC1 Inhibition % 10 μM Neurons Calcium kinetic assay” value is reported as 46%.
As for Furosemide [reference compound], the “NKCC1 Inhibition % 10 μM Neurons Calcium kinetic assay” value came out at 36%.

The same experiment, now with this note: 10 μM; immature neurons 3 DIV; Table 2.
On to `CCCCCCCCNc1ccc(C(=O)O)cc1S(N)(=O)=O` [Compound 2.8, 4-(octylamino)-3-sulfamoyl-benzoic acid], for which the “NKCC1 Inhibition % 10 μM Neurons Calcium kinetic assay” value came to 3%.
With `CC(C)(C)CCNc1ccc(C(=O)O)cc1S(N)(=O)=O` [Compound 2.9, 4-(3,3-dimethylbutylamino)-3-sulfamoyl-benzoic acid], the “NKCC1 Inhibition % 10 μM Neurons Calcium kinetic assay” value came out at 25%.
As to `CCCCNc1ccc(C(=O)O)cc1S(=O)(=O)NC` [Compound 3.6, 4-(butylamino)-3-(methylsulfamoyl)benzoic acid], the “NKCC1 Inhibition % 10 μM Neurons Calcium kinetic assay” value was 6%.
Take `CCCCCCNc1ccc(C(=O)O)cc1S(=O)(=O)NC` [Compound 3.7, 4-(hexylamino)-3-(methylsulfamoyl)benzoic acid]: the “NKCC1 Inhibition % 10 μM Neurons Calcium kinetic assay” value came out at 7%.
With `CCCCCCCCNc1ccc(C(=O)O)cc1S(=O)(=O)NC` [Compound 3.8, 3-(methylsulfamoyl)-4-(octylamino)benzoic acid], the “NKCC1 Inhibition % 10 μM Neurons Calcium kinetic assay” value is listed as 20%.
As for `CNS(=O)(=O)c1cc(C(=O)O)ccc1NCCC(C)(C)C` [Compound 3.9, 4-(3,3-dimethylbutylamino)-3-(methylsulfamoyl)benzoic acid], the “NKCC1 Inhibition % 10 μM Neurons Calcium kinetic assay” value is 14%.
Same read-out and setting: next, `CCCCNc1ccc(C(=O)O)cc1S(=O)(=O)N(C)C` [Compound 3.11, 4-(butylamino)-3-(dimethylsulfamoyl)benzoic acid]: 8%; `CCCCCCNc1ccc(C(=O)O)cc1S(=O)(=O)N(C)C` [Compound 3.12, 3-(dimethylsulfamoyl)-4-(hexylamino)benzoic acid]: 13%.
For `CCCCCCCCNc1ccc(C(=O)O)cc1S(=O)(=O)N(C)C` [Compound 3.13, 3-(dimethylsulfamoyl)-4-(octylamino)benzoic acid], the “NKCC1 Inhibition % 10 μM Neurons Calcium kinetic assay” value is listed as 45%.
With `CN(C)S(=O)(=O)c1cc(C(=O)O)ccc1NCCC(C)(C)C` [Compound 3.14, 4-(3,3-dimethylbutylamino)-3-(dimethylsulfamoyl)benzoic acid], the “NKCC1 Inhibition % 10 μM Neurons Calcium kinetic assay” value is recorded as 11%.
With `CN(C)S(=O)(=O)c1cc(C(=O)O)ccc1NCCCCCCCC(F)(F)F` [Compound 3.17, 3-(dimethylsulfamoyl)-4-(8,8,8-trifluorooctylamino) benzoic acid], the “NKCC1 Inhibition % 10 μM Neurons Calcium kinetic assay” value was determined as 46%.
Same read-out and setting: next, Furosemide [reference compound]: 36%.

Still in this experiment, the particulars now being: GABA 100 μM; normalized to KCl.
Turning to Furosemide [reference compound], the “fluorescence increase upon GABA application compared with vehicle (DMSO)-treated controls” value is listed as “significantly reduced”.
